Paper PMC5218480 (PLoS ONE, 2017)
Where “and” joins values, the source holds several entries; their conditions need not be identical. Equal entries are not always repeated.

Legend:
MV-4-11 and HL-60 cells [1] = assay: Flow cytometry, cell cycle (EdU, S phase); type: cell-based, human; conditions: single agent, 72 hours
Protocol: (§1) All compounds and/or solvent DMSO were added concurrently at the indicated doses. Flow cytometry was performed to measure surface level of CD11b, cell cycle distribution, and induction of apoptosis. CD11b and apoptosis were analyzed on a FC500 flow cytometer ([…]) and cell cycle profiled on an Attune NxT (Life Technologies).
EdU labeled cells were then mixed with FxCycle Far Red Stain (Life Technologies) and 100 μg RNase A cocktail (Life technologies) for 30 minutes before flow cytometry analysis. Edu positive populations representing S phase cells were quantified.

HDAC3 = target: T1, HDAC3 (Homo sapiens, UniProt O15379); assay: HDAC enzyme assay, in vitro biochemical; conditions: pre-incubated 24 hours at 4°C; n = 3; read-out: IC50 against HDAC3
T1 construct: purchased BPS Biosciences
T1 sequence (O15379 whole entry): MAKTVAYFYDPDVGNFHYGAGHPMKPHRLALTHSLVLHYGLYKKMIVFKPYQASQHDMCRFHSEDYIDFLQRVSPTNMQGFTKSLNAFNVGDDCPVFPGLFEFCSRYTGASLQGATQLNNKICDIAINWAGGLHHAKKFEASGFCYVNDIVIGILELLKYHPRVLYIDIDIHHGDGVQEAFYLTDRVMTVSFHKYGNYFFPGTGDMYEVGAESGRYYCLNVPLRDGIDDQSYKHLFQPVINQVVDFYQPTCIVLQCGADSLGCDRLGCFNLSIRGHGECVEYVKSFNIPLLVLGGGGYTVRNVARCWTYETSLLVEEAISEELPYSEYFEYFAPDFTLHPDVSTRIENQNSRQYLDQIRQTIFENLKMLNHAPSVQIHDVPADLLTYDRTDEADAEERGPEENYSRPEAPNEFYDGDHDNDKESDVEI
T1 sequence (Q9Y618 395-489 partner limits assumed): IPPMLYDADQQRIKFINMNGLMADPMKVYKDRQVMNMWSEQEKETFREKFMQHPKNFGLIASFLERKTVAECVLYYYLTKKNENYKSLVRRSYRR
Protocol: (§2) In vitro biochemical assays were performed as described previously. Specifically, compounds were dissolved and diluted in assay buffer (50 mM HEPES, pH 7.4, 100 mM KCl, 0.001% Tween-20, 0.05% BSA, and 20 μM Tris (2-carboxyethyl) phosphine) to 6-fold the final concentration. […] The amount of substrate (acetyl-lysine tripeptide) used for each enzyme was equal to the Michaelis constant (Km), as determined by a titration curve. Substrate was diluted in assay buffer to 6-fold of the final concentration with 0.3 μM sequencing grade trypsin (Sigma-Aldrich). The substrate/trypsin mix was added to the enzyme/compound mix and the plate was shaken for 5 seconds and then placed into a SpectraMax M5 microtiter (Molecular Devices) plate reader. The enzymatic reaction was monitored over 30 minutes for release of […] after deacetylation of the lysine side chain in the peptide substrate, and the linear rate of the reaction was calculated.

HDAC1 = target: T2, HDAC1 (Homo sapiens, UniProt Q13547); assay: HDAC enzyme assay, in vitro biochemical
T2 construct: purchased BPS Biosciences
T2 sequence (Q13547 whole entry): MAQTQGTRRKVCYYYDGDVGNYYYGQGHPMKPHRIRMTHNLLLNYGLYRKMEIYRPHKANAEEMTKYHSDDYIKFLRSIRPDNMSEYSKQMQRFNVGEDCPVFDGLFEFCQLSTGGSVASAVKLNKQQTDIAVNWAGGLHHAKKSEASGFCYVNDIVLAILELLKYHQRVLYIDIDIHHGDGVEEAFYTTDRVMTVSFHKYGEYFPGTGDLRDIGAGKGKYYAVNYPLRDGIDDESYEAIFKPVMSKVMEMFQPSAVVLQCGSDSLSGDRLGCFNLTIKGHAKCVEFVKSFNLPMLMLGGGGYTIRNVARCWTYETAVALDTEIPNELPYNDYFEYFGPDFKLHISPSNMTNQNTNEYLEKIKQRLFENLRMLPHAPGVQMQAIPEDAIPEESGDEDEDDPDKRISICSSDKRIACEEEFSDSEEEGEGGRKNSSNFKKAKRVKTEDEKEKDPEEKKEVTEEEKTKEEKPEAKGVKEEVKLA
Protocol: as §2

HDAC2 = target: T3, HDAC2 (Homo sapiens, UniProt Q92769); assay: HDAC enzyme assay, in vitro biochemical
T3 construct: purchased BPS Biosciences
T3 sequence (Q92769 whole entry): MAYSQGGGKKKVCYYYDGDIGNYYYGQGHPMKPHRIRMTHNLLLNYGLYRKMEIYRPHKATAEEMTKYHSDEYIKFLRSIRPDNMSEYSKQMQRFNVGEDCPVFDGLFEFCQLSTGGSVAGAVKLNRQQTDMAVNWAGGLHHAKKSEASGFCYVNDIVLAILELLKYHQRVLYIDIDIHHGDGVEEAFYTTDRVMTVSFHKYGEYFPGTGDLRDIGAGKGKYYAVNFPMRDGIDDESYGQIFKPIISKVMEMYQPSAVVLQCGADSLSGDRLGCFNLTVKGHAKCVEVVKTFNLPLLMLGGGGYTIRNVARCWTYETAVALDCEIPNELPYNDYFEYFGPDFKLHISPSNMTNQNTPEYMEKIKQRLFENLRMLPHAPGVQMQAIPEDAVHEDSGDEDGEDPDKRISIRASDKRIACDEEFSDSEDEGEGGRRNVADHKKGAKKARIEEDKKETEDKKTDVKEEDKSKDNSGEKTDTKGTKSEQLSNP
Protocol: as §2

MV-4-11 and HL-60 cells [2] = assay: Quantitative real time PCR (qPCR) of CDKN1A, CDKN1C, GATA2, HES1; type: cell-based, human; conditions: MV-4-11 and HL-60, 48 hours
Protocol: RNA isolations were performed on a Qiacube (Qiagen) using the RNeasy Micro Kit (Qiagen) according to manufacturer’s protocol. RNA was converted to cDNA using the High Capacity RNA-to-cDNA Kit (Life Technologies) and qPCR performed using the Taqman Gene Expression Max Mix according to manufacturer’s protocol (Applied Bioscience). The following ThermoFisher taqman probes were used: GATA2 (Hs01060665_g1), GAPDH (Hs0275899_g1), ACTB (Hs00231119_m1), CDKN1A (Hs00355782_m1), CDKN1C (Hs00175938_m1), HES1 (Hs00172878_m1).

MV-4-11 and HL-60 cells [3] = assay: Flow cytometry, surface level of CD11b (differentiation); type: cell-based, human; conditions: single agent, 72 hours
Protocol: as §1
The frequency of CD11b positive cells out of total viable cells identified by forward and side scatter profile was quantified.

NB-4 cells = assay: Cell viability assay (CellTiter-Glo); conditions: read-out: IC50 cell viability NB-4; 72 hours
Protocol: (§3) MV-4-11, Kasumi-1, and HL-60 AML cell lines were all obtained from ATCC. MOLM-13 and NB-4 cell lines were obtained from DSMZ. […] The identity of each cell line was validated and documented by the suppliers. All experiments were performed with cells maintained at low passage numbers.
Compounds and/or solvent dimethyl sulfoxide (DMSO) were added at the same time using an HP D300 digital dispenser (Hewlett Packard) in triplicate or quadruplicate and incubated for 72 hours at 37°C. Viability was measured by adding 25 μL CellTiter-Glo (Promega), incubating for 10 minutes, and measuring luminescence on a SpectraMax (Molecular Devices).

MV-4-11 and HL-60 cells [4] = assay: Flow cytometry, apoptosis (Annexin V); type: cell-based, human; conditions: single agent, 96 hours
Protocol: as §1
Annexin V-positive populations were quantified.

Kasumi-1 cells = assay: Cell viability assay (CellTiter-Glo); conditions: read-out: IC50 cell viability Kasumi-1; 72 hours
Protocol: as §3
Compounds and/or solvent dimethyl sulfoxide (DMSO) were added at the same time using an HP D300 digital dispenser (Hewlett Packard) in triplicate or quadruplicate and incubated for 72 hours at 37°C. Viability was measured by adding 25 μL CellTiter-Glo (Promega), incubating for 10 minutes, and measuring luminescence on a SpectraMax (Molecular Devices). […] CI < 1 indicates synergism, CI = 1 indicates additivity, and CI > 1 indicates antagonism.

HDAC4 = target: T4, HDAC4 (Homo sapiens, UniProt P56524); assay: HDAC enzyme assay, in vitro biochemical; conditions: maximum concentration tested of 20 μM
T4 construct: purchased BPS Biosciences
T4 sequence (P56524 whole entry): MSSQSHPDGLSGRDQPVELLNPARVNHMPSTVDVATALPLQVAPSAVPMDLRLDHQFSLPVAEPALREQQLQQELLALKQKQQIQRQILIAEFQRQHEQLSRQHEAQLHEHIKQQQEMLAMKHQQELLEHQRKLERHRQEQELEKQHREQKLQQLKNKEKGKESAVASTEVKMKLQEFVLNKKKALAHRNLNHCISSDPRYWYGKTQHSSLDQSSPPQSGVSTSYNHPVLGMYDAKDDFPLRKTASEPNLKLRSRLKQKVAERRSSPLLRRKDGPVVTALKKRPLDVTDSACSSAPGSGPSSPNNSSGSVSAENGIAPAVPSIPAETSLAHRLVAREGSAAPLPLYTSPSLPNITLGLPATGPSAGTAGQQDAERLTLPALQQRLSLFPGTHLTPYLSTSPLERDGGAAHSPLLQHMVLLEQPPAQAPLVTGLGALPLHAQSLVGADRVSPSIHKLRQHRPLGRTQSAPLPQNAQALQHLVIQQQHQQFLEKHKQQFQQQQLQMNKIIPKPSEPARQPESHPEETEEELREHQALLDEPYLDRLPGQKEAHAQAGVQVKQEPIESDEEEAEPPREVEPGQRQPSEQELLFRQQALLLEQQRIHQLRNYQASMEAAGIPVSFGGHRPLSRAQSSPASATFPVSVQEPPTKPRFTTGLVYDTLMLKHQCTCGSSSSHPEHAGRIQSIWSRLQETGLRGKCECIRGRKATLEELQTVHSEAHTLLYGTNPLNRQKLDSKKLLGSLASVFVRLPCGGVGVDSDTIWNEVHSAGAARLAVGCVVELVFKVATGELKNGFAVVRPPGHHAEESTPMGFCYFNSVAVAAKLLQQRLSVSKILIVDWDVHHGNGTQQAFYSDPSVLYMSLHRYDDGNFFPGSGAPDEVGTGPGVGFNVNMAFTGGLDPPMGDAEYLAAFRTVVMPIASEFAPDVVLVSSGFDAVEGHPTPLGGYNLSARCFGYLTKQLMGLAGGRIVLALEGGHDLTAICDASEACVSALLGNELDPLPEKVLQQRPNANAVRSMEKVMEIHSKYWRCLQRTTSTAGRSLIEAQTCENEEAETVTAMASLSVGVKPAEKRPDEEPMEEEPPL
Protocol: as §2
biochemical assay for HDAC4, HDAC5, HDAC6, HDAC7, HDAC8, HDAC9 inhibition by ACY-1035.
(1 picture or pasted object on this page, not shown here)

MOLM-13 xenograft = assay: In vivo model of AML: MOLM-13 xenograft, time to endpoint (TTE) and survival; conditions: Azacitidine 5.5 mg/kg, iv, bi-weekly; for Tumor volume: individual animal;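 as to all read-outs here: female Crl:NU(NCr)-Foxn1^nu mice bearing subcutaneous flank MOLM-13 tumors, caliper-measured twice per week, volume as width^2 × length/2, endpoint reached at 2000 mm^3 tumor volume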

SMILES	cells in S phase (MV-4-11 and HL-60 cells [1])	IC50 (HDAC3)	selectivity for HDAC1 over HDAC3 (HDAC1)	IC50 (HDAC1; pre-incubated 24 hours at 4°C, n = 3, read-out: IC50 against HDAC1)	selectivity for HDAC2 over HDAC3 (HDAC2)	IC50 (HDAC2; pre-incubated 24 hours at 4°C, n = 3, read-out: IC50 against HDAC2)	expression of CDKN1A, CDKN1C, GATA2 and HES1 (qPCR) (MV-4-11 and HL-60 cells [2])	differentiation, surface expression of CD11b (MV-4-11 and HL-60 cells [3])	IC50 (NB-4 cells)	apoptosis, staining for annexin V (MV-4-11 and HL-60 cells [4])	IC50 (Kasumi-1 cells)	inhibition of HDAC4 (HDAC4)	TTE (MOLM-13 xenograft; TTE for individual animal)	Tumor volume (MOLM-13 xenograft; day of study 1)	Tumor volume (MOLM-13 xenograft; day of study 5)	Tumor volume (MOLM-13 xenograft; day of study 8)	Tumor volume (MOLM-13 xenograft; day of study 12)	Tumor volume (MOLM-13 xenograft; day of study 15)	Tumor volume (MOLM-13 xenograft; day of study 19)
Nc1ccc(-c2cccs2)cc1NC(=O)c1ccc2c(c1)cc(C1CC1)n2CCN1CCOCC1 [ACY-1035]	dose-dependent reduction of cells in S phase	2 µM	more than 150 fold	0.0094 µM	approximately 50 fold	0.023 µM	up-regulated	dose-dependent induction of differentiation	2.8 µM	increased staining for annexin V	2.6 µM	did not inhibit	–	–	–	–	–	–	–
Nc1ncn([C@@H]2O[C@H](CO)[C@@H](O)[C@H]2O)c(=O)n1 [azacitidine]	–	–	–	–	–	–	up-regulated	–	–	–	–	–	14.4 and 17 and 17.1 and 17.2 and 17.4 and 17.6 and 17.7	108 mm3 and 126 mm3 and 144 mm3 and 172 mm3	172 mm3 and 126 mm3 and 245 mm3 and 196 mm3 and 365 mm3 and 256 mm3	500 mm3 and 365 mm3 and 405 mm3 and 700 mm3 and 288 mm3 and 650 mm3 and 726 mm3 and 550 mm3	1470 mm3 and 936 mm3 and 1183 mm3 and 1862 mm3 and 787 mm3 and 1080 mm3 and 1008 mm3 and 1152 mm3 and 1666 mm3	1913 mm3 and 1568 mm3 and 2025 mm3 and 2816 mm3 and 1268 mm3 and 1666 mm3 and 1764 mm3 and 3240 mm3	2025 mm3 and 2432 mm3 and 2176 mm3 and 2138 mm3 and 2250 mm3
